pIC50: −log10 of the molar value. Where two headings read alike, the source gives them in different places.
Molecular target: T1, full-length SARM1 (FL-SARM1) (Homo sapiens, UniProt Q6SZW1)
T1 sequence (Q6SZW1 28-724): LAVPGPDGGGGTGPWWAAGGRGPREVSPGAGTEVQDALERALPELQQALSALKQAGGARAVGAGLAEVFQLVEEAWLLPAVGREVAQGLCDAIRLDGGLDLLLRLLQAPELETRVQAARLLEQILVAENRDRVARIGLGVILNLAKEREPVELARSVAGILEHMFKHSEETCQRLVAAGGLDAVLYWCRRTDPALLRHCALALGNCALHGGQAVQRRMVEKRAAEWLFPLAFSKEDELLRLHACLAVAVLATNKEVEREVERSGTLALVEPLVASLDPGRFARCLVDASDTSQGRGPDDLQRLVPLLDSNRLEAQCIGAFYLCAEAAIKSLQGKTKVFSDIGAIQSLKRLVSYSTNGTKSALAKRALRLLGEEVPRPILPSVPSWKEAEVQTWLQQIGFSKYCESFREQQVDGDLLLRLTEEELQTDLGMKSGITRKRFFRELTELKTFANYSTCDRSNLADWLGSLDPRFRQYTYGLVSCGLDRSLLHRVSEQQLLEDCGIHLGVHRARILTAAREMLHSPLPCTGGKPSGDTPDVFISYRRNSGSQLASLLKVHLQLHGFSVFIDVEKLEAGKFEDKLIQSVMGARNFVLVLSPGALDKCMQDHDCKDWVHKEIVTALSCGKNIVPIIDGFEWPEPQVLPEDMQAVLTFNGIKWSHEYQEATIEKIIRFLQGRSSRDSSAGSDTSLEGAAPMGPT
Test: FL-SARM1 cellular lysate assay (NAD/NADH-Glo detection of remaining NAD+, NMN-activated)
Conditions: for IC50: Activity (μM) (IC50)

[1] = read-out: Activity (IC50 class), 11 point curve
[2] = Activity (IC50 class), 11 point curve

Row | Compound | IC50 (11 point curve) [µM] | pIC50 [1] | pIC50 [2]
1 | Cc1ccc(NC(=O)N2C3CC2CN(C(C)C(F)(F)F)C3)cc1-c1ccccn1 (stereo not drawn) [Example 2, N-(4-Methyl-3-(pyridin-2-yl)phenyl)-3-(1,1,1-trifluoropropan-2-yl)-3,6-diazabicyclo[3.1.1]heptane-6-carboxamide] | 0.7 | 6.00 to 10.00 | –
2 | Cc1cc(F)c(NC(=O)N2C3CC2CN(CC(F)(F)F)C3)cc1-c1ccccn1 [Example 3, N-(2-Fluoro-4-methyl-5-(pyridin-2-yl)phenyl)-3-(2,2,2-trifluoroethyl)-3,6-diazabicyclo[3.1.1]heptane-6-carboxamide] | 1.2 | – | 5.00 to 6.00
3 | Cc1ccc(NC(=O)N2C3CC2CN(CC(F)(F)F)C3)cc1-c1ccccn1 [Example 4, N-(4-methyl-3-(pyridin-2-yl)phenyl)-3-(2,2,2-trifluoroethyl)-3,6-diazabicyclo[3.1.1]heptane-6-carboxamide] | 0.4 | 6.00 to 10.00 | –
4 | Cc1ccc(NC(=O)N2C3CC2CN(CC(F)F)C3)cc1-c1ccccn1 [Example 5, 3-(2,2-difluoroethyl)-N-(4-methyl-3-(pyridin-2-yl)phenyl)-3,6-diazabicyclo[3.1.1]heptane-6-carboxamide] | 0.8 | 6.00 to 10.00 | –
5 | Cc1ccc(NC(=O)N2C3CC2CN(C2CCC2)C3)cc1-c1ccccn1 [Example 6, 3-Cyclobutyl-N-(4-methyl-3-(pyridin-2-yl)phenyl)-3,6-diazabicyclo[3.1.1]heptane-6-carboxamide] | 4.2 | – | 5.00 to 6.00
6 | CCN1CC2CC(C1)N2C(=O)Nc1ccc(C)c(-c2ccccn2)c1 [Example 7, 3-Ethyl-N-(4-methyl-3-(pyridin-2-yl)phenyl)-3,6-diazabicyclo[3.1.1]heptane-6-carboxamide] | 4 | – | 5.00 to 6.00
7 | Cc1ccc(NC(=O)N2C3CCC2c2ccccc23)cc1-c1ccccn1 [Example 8, N-[4-Methyl-3-(2-pyridyl)phenyl]-11-azatricyclo[6.2.1.02,7]undeca-2,4,6-triene-11-carboxamide] | 0.06 | 6.00 to 10.00 | –
8 | COC(=O)C12CCCC(C1)N2C(=O)Nc1ccc(C)c(-c2ccccn2)c1 (stereo not drawn) [Example 9, Methyl 6-[[4-methyl-3-(2-pyridyl)phenyl]carbamoyl]-6-azabicyclo[3.1.1]heptane-1-carboxylate] | 0.1 | 6.00 to 10.00 | –
9 | Cc1ccc(NC(=O)N2[C@@H]3C[C@H](C)C[C@H]2C3)cc1-c1ccccn1 [Example 10, trans-3-Methyl-N-(4-methyl-3-(pyridin-2-yl)phenyl)-6-azabicyclo[3.1.1]heptane-6-carboxamide] | 0.01 | 6.00 to 10.00 | –
10 | Cc1ccc(NC(=O)N2[C@@H]3C[C@@H](C)C[C@H]2C3)cc1-c1ccccn1 [Example 11, cis-3-Methyl-N-(4-methyl-3-(pyridin-2-yl)phenyl)-6-azabicyclo[3.1.1]heptane-6-carboxamide] | 0.01 | 6.00 to 10.00 | –
11 | Cc1ccc(NC(=O)N2C[C@@H]3C[C@H]2CN3c2ccccc2)cc1-c1ccccn1 [Example 13, (1S,4S)-N-(4-methyl-3-(pyridin-2-yl)phenyl)-5-phenyl-2,5-diazabicyclo[2.2.1]heptane-2-carboxamide] | 0.7 | 6.00 to 10.00 | –
12 | Cc1ccc(NC(=O)N2C3CCCC2CC3)cc1-c1ccc(F)cn1 [Example 14, N-(3-(5-fluoropyridin-2-yl)-4-methylphenyl)-8-azabicyclo[3.2.1]octane-8-carboxamide] | 0.1 | 6.00 to 10.00 | –
13 | Cc1ccc(NC(=O)N2C3CCC2c2c(F)cncc23)cc1-c1ccccn1 (stereo not drawn) [Example 15, 4-fluoro-N-(4-methyl-3-(pyridin-2-yl)phenyl)-5,6,7,8-tetrahydro-5,8-epiminoisoquinoline-9-carboxamide] | 0.4 | 6.00 to 10.00 | –
14 | Cc1ccc(NC(=O)N2CC3CCC2c2ccccc23)cc1-c1ccccn1 (stereo not drawn) [Example 16, N-(4-methyl-3-(pyridin-2-yl)phenyl)-1,2,3,4-tetrahydro-1,4-(epiminomethano)naphthalene-10-carboxamide] | 1.1 | – | 5.00 to 6.00
15 | Cc1ccc(NC(=O)N2C3CCCC2C3)cc1-c1ccccn1 [Example 17, N-(4-methyl-3-(pyridin-2-yl)phenyl)-6-azabicyclo[3.1.1]heptane-6-carboxamide] | 0.1 | 6.00 to 10.00 | –
16 | O=C(Nc1ccc(C(F)(F)F)c(-c2ccccn2)c1)N1C2CCCC1C2 [Example 18, N-(3-(pyridin-2-yl)-4-(trifluoromethyl)phenyl)-6-azabicyclo[3.1.1]heptane-6-carboxamide] | 0.3 | 6.00 to 10.00 | –
17 | N#CCc1ccc(NC(=O)N2C3CCCC2C3)cc1-c1ccccn1 [Example 19, N-(4-(cyanomethyl)-3-(pyridin-2-yl)phenyl)-6-azabicyclo[3.1.1]heptane-6-carboxamide] | 0.2 | 6.00 to 10.00 | –

Row | Compound | IC50 (11 point curve) [µM] | pIC50 [1] | pIC50 [2]
18 | O=C(Nc1ccc(Cl)c(-c2ccccn2)c1)N1C2CCCC1C2 [Example 20, N-(4-chloro-3-(pyridin-2-yl)phenyl)-6-azabicyclo[3.1.1]heptane-6-carboxamide] | 0.4 | 6.00 to 10.00 | –
19 | Cc1ccc(NC(=O)N2CC3CC2Cc2ccccc23)cc1-c1ccccn1 (stereo not drawn) [Example 21, N-(4-methyl-3-(pyridin-2-yl)phenyl)-4,5-dihydro-1H-1,4-methanobenzo[d]azepine-3(2H)-carboxamide] | 2.5 | – | 5.00 to 6.00
20 | Cc1ccc(NC(=O)N2C3CC2C(=O)N(C)C3)cc1-c1ccccn1 (stereo not drawn) [Example 22, 3-methyl-N-(4-methyl-3-(pyridin-2-yl)phenyl)-2-oxo-3,6-diazabicyclo[3.1.1]heptane-6-carboxamide] | 2 | – | 5.00 to 6.00
21 | Cc1ccc(NC(=O)N2C3CCCCC2C3)cc1-c1ccccn1 [Example 23, N-(4-methyl-3-(pyridin-2-yl)phenyl)-7-azabicyclo[4.1.1]octane-7-carboxamide] | 0.04 | 6.00 to 10.00 | –
22 | Cc1ccc(NC(=O)N2CC3CC2c2ccccc2O3)cc1-c1ccccn1 (stereo not drawn) [Example 24, N-(4-methyl-3-(pyridin-2-yl)phenyl)-2,3-dihydro-2,5-methanobenzo[f][1,4]oxazepine-4(5H)-carboxamide] | 1.4 | – | 5.00 to 6.00
23 | Cc1ccc(NC(=O)N2CC(C3CC3)C2)cc1-c1ccccn1 [Example 25, 3-cyclopropyl-N-(4-methyl-3-(pyridin-2-yl)phenyl)azetidine-1-carboxamide] | 6.7 | – | 5.00 to 6.00
24 | Cc1ccc(NC(=O)N2C3CCC2c2cnccc23)cc1-c1ccccn1 (stereo not drawn) [Example 26, N-(4-methyl-3-(pyridin-2-yl)phenyl)-5,6,7,8-tetrahydro-5,8-epiminoisoquinoline-9-carboxamide] | 1.3 | – | 5.00 to 6.00
25 | Cc1ccc(NC(=O)N2[C@@H]3C[C@@H](F)C[C@H]2C3)cc1-c1ccccn1 [Example 27, cis-3-fluoro-N-(4-methyl-3-(pyridin-2-yl)phenyl)-6-azabicyclo[3.1.1]heptane-6-carboxamide] | 0.1 | 6.00 to 10.00 | –
26 | CCc1ccc(NC(=O)N2C3CCCC2C3)cc1-c1ccc(F)cn1 [Example 28, N-(4-ethyl-3-(5-fluoropyridin-2-yl)phenyl)-6-azabicyclo[3.1.1]heptane-6-carboxamide] | 0.6 | 6.00 to 10.00 | –
27 | Cc1ccc(NC(=O)N2C3C[C@H](OC(F)F)C[C@H]2C3)cc1-c1ccccn1 [Example 29, trans-3-(difluoromethoxy)-N-(4-methyl-3-(pyridin-2-yl)phenyl)-6-azabicyclo[3.1.1]heptane-6-carboxamide] | 0.06 | 6.00 to 10.00 | –
28 | CCc1ccc(NC(=O)N2C3CCCC2C3)cc1-c1ccccn1 [Example 30, N-(4-ethyl-3-(pyridin-2-yl)phenyl)-6-azabicyclo[3.1.1]heptane-6-carboxamide] | 0.2 | 6.00 to 10.00 | –
29 | Cc1ccc(NC(=O)N2C3CCCC2C3)cc1-c1ncccc1C1CC1 [Example 32, N-(3-(3-cyclopropylpyridin-2-yl)-4-methylphenyl)-6-azabicyclo[3.1.1]heptane-6-carboxamide] | 6.1 | – | 5.00 to 6.00
30 | Cc1ccc(NC(=O)N2C3CCCC2C3)cc1-c1ncccc1C#N [Example 33, N-(3-(3-cyanopyridin-2-yl)-4-methylphenyl)-6-azabicyclo[3.1.1]heptane-6-carboxamide] | 1.2 | – | 5.00 to 6.00
31 | O=C(Nc1ccc(C2CC2)c(-c2ccccn2)c1)N1C2CCCC1C2 [Example 34, N-(4-cyclopropyl-3-(pyridin-2-yl)phenyl)-6-azabicyclo[3.1.1]heptane-6-carboxamide] | 1.1 | – | 5.00 to 6.00
32 | O=C(Nc1ccc(F)c(-c2ccc(F)cn2)c1)N1C2CCCC1C2 [Example 35, N-(4-fluoro-3-(5-fluoropyridin-2-yl)phenyl)-6-azabicyclo[3.1.1]heptane-6-carboxamide] | 3.5 | – | 5.00 to 6.00
33 | O=C(Nc1ccc(C2CC2)c(-c2ccc(F)cn2)c1)N1C2CCCC1C2 [Example 36, N-(4-cyclopropyl-3-(5-fluoropyridin-2-yl)phenyl)-6-azabicyclo[3.1.1]heptane-6-carboxamide] | 1.1 | – | 5.00 to 6.00
